Legend:
Experiment in all cases: relative viability (nuclei count vs DMSO), 5 days (fraction); higher = more cells survive
LCLC-97TM1 = test system: LCLC-97TM1
Summary of the method: (§1)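 Medians of duplicate plates are given as relative viability. That measure is the nuclei count in treated wells divided by the count in vehicle wells. Counts were taken on 4× images of lung cancer cell lines in 1536-well plates, 5 days after pin-tool dosing the day after seeding with one drug alone or a fixed anchor-drug dose plus five library-drug doses (not always all listed) in √10 steps.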

NCI-H2023 = test system: NCI-H2023
Summary of the method: as §1

HOP-62 = test system: HOP-62
Summary of the method: as §1

NCI-H2347 = test system: NCI-H2347
Summary of the method: as §1

EMC-BAC-2 = test system: EMC-BAC-2
Summary of the method: as §1

EPLC-272H = test system: EPLC-272H
Summary of the method: as §1

NCI-H661 = test system: NCI-H661
Summary of the method: as §1

NCI-H647 = test system: NCI-H647
Summary of the method: as §1

SW 1573 = test system: SW 1573
Summary of the method: as §1

LXF-289 = test system: LXF-289
Summary of the method: as §1

NCI-H322M = test system: NCI-H322M
Summary of the method: as §1

NCI-H2009 = test system: NCI-H2009
Summary of the method: as §1

NCI-H1563 = test system: NCI-H1563
Summary of the method: as §1

NCI-H727 = test system: NCI-H727
Summary of the method: as §1

H3255 = test system: H3255
Summary of the method: as §1

PC-14 = test system: PC-14
Summary of the method: as §1

NCI-H1650 = test system: NCI-H1650
Summary of the method: as §1

NCI-H1993 = test system: NCI-H1993
Summary of the method: as §1

NCI-H2085 = test system: NCI-H2085
Summary of the method: as §1

SK-LU-1 = test system: SK-LU-1
Summary of the method: as §1

NCI-H2342 = test system: NCI-H2342
Summary of the method: as §1

NCI-H2126 = test system: NCI-H2126
Summary of the method: as §1

NCI-H1915 = test system: NCI-H1915
Summary of the method: as §1

SMILES: Oc1nc(-c2ccc(C(F)(F)F)cc2)nc2c1CSCC2 [XAV939] + COc1cccc2cc(-c3nc([C@H]4CC[C@H](C(=O)O)CC4)n4ncnc(N)c34)[nH]c12 [OSI-027] (partner 0.5 µM)
- relative viability (LCLC-97TM1; first compound 0.08 µM): 0.643
- relative viability (LCLC-97TM1; first compound 0.253 µM): 0.566
- relative viability (LCLC-97TM1; first compound 0.8 µM): 0.545
- relative viability (LCLC-97TM1; first compound 2.53 µM): 0.609
- relative viability (NCI-H2023; first compound 0.08 µM): 0.368
- relative viability (NCI-H2023; first compound 0.253 µM): 0.288
- relative viability (NCI-H2023; first compound 0.8 µM): 0.321
- relative viability (NCI-H2023; first compound 2.53 µM): 0.251
- relative viability (HOP-62; first compound 0.08 µM): 1.01
- relative viability (HOP-62; first compound 0.253 µM): 0.773
- relative viability (HOP-62; first compound 0.8 µM): 0.763
- relative viability (HOP-62; first compound 2.53 µM): 0.574
- relative viability (NCI-H2347; first compound 0.08 µM): 0.571
- relative viability (NCI-H2347; first compound 2.53 µM): 0.217
- relative viability (EMC-BAC-2; first compound 0.08 µM): 0.402
- relative viability (EMC-BAC-2; first compound 0.253 µM): 0.344
- relative viability (EMC-BAC-2; first compound 0.8 µM): 0.319
- relative viability (EMC-BAC-2; first compound 2.53 µM): 0.236
- relative viability (EPLC-272H; first compound 0.08 µM): 0.312
- relative viability (EPLC-272H; first compound 0.253 µM): 0.22
- relative viability (EPLC-272H; first compound 0.8 µM): 0.261
- relative viability (EPLC-272H; first compound 2.53 µM): 0.314
- relative viability (NCI-H661; first compound 0.08 µM): 0.701
- relative viability (NCI-H661; first compound 0.253 µM): 0.719
- relative viability (NCI-H661; first compound 0.8 µM): 0.696
- relative viability (NCI-H661; first compound 2.53 µM): 0.583
- relative viability (NCI-H647; first compound 0.08 µM): 0.722
- relative viability (NCI-H647; first compound 0.253 µM): 0.46
- relative viability (NCI-H647; first compound 0.8 µM): 0.656
- relative viability (NCI-H647; first compound 2.53 µM): 0.464
- relative viability (SW 1573; first compound 0.08 µM): 0.602
- relative viability (SW 1573; first compound 0.253 µM): 0.556
- relative viability (SW 1573; first compound 0.8 µM): 0.542
- relative viability (SW 1573; first compound 2.53 µM): 0.494
- relative viability (LXF-289; first compound 0.08 µM): 0.817
- relative viability (LXF-289; first compound 0.253 µM): 0.721
- relative viability (LXF-289; first compound 0.8 µM): 0.746
- relative viability (LXF-289; first compound 2.53 µM): 0.658
- relative viability (NCI-H322M; first compound 0.08 µM): 0.615
- relative viability (NCI-H322M; first compound 0.253 µM): 0.594
- relative viability (NCI-H322M; first compound 0.8 µM): 0.504
- relative viability (NCI-H322M; first compound 2.53 µM): 0.406
- relative viability (NCI-H2009; first compound 0.08 µM): 0.676
- relative viability (NCI-H2009; first compound 0.253 µM): 0.561
- relative viability (NCI-H2009; first compound 0.8 µM): 0.507
- relative viability (NCI-H2009; first compound 2.53 µM): 0.369
- relative viability (NCI-H1563; first compound 0.08 µM): 0.844
- relative viability (NCI-H1563; first compound 0.253 µM): 0.769
- relative viability (NCI-H1563; first compound 0.8 µM): 0.708
- relative viability (NCI-H1563; first compound 2.53 µM): 0.614
- relative viability (NCI-H727; first compound 0.08 µM): 0.696
- relative viability (NCI-H727; first compound 0.253 µM): 0.495
- relative viability (NCI-H727; first compound 0.8 µM): 0.744
- relative viability (NCI-H727; first compound 2.53 µM): 0.514
- relative viability (H3255; first compound 0.08 µM): 0.555
- relative viability (H3255; first compound 0.253 µM): 0.584
- relative viability (H3255; first compound 0.8 µM): 0.6
- relative viability (H3255; first compound 2.53 µM): 0.384
- relative viability (PC-14; first compound 0.08 µM): 1.09
- relative viability (PC-14; first compound 0.253 µM): 0.772
- relative viability (PC-14; first compound 0.8 µM): 0.725
- relative viability (PC-14; first compound 2.53 µM): 0.639
- relative viability (NCI-H1650; first compound 0.08 µM): 0.817
- relative viability (NCI-H1650; first compound 0.253 µM): 0.6
- relative viability (NCI-H1650; first compound 0.8 µM): 0.742
- relative viability (NCI-H1650; first compound 2.53 µM): 0.443
- relative viability (NCI-H1993; first compound 0.08 µM): 0.563
- relative viability (NCI-H1993; first compound 0.253 µM): 0.493
- relative viability (NCI-H1993; first compound 0.8 µM): 0.596
- relative viability (NCI-H1993; first compound 2.53 µM): 0.461
- relative viability (NCI-H2085; first compound 0.08 µM): 0.638
- relative viability (NCI-H2085; first compound 0.253 µM): 0.686
- relative viability (NCI-H2085; first compound 0.8 µM): 0.958
- relative viability (NCI-H2085; first compound 2.53 µM): 0.625
- relative viability (SK-LU-1; first compound 0.08 µM): 0.387
- relative viability (SK-LU-1; first compound 0.253 µM): 0.339
- relative viability (SK-LU-1; first compound 0.8 µM): 0.394
- relative viability (SK-LU-1; first compound 2.53 µM): 0.34
- relative viability (NCI-H2342; first compound 0.08 µM): 0.596
- relative viability (NCI-H2342; first compound 0.253 µM): 0.481
- relative viability (NCI-H2342; first compound 0.8 µM): 0.531
- relative viability (NCI-H2342; first compound 2.53 µM): 0.464
- relative viability (NCI-H2126; first compound 0.08 µM): 0.651
- relative viability (NCI-H2126; first compound 0.253 µM): 0.649
- relative viability (NCI-H2126; first compound 0.8 µM): 0.682
- relative viability (NCI-H2126; first compound 2.53 µM): 0.61
- relative viability (NCI-H1915; first compound 0.08 µM): 0.707
- relative viability (NCI-H1915; first compound 0.253 µM): 0.321
- relative viability (NCI-H1915; first compound 0.8 µM): 0.597
- relative viability (NCI-H1915; first compound 2.53 µM): 0.589

Source: the supplement of paper PMC10307832
